Results on three compounds are retold here after ChEMBL document CHEMBL3886245, “Dual modulators of 5HT2A and D3 receptors” (2014).

What is called Ki is a dissociation constant, usually derived from enzyme kinetics or from competition with a known ligand.

The target in assay [1] is 5-hydroxytryptamine receptor 2A (Homo sapiens, UniProt P28223). In words: (§1) Membranes were incubated in a total volume of 200 ul with a fixed concentration of radioligand (final concentration approximately 0.7 nM [3H]-spiperone for D2, 0.5 nM [3H]-spiperone for D3, and 1.1 nM [3H]-ketanserin for 5-HT2A) and ten concentrations of test compound in ranging between 10 uM-0.1 nM for 1 h at RT. At the end of the incubation, the reaction mixtures were filtered on to unifilter 96-well white microplates with bonded GF/C filters.

Assay [2] addresses D(3) dopamine receptor (Homo sapiens, UniProt P35462). The assay is described as §1.

Chain of D(3) dopamine receptor (P35462 whole entry): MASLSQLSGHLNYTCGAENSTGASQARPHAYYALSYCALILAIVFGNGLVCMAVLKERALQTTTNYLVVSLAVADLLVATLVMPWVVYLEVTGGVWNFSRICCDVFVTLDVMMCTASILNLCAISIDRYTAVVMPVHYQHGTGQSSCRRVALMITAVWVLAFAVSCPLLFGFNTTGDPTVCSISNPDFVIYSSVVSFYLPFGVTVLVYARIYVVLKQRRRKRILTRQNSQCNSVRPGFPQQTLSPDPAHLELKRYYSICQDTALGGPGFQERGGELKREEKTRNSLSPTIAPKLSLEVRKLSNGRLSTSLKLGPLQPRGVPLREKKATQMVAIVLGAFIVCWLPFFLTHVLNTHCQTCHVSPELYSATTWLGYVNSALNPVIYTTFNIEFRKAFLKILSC
Chain of 5-hydroxytryptamine receptor 2A (P28223 whole entry): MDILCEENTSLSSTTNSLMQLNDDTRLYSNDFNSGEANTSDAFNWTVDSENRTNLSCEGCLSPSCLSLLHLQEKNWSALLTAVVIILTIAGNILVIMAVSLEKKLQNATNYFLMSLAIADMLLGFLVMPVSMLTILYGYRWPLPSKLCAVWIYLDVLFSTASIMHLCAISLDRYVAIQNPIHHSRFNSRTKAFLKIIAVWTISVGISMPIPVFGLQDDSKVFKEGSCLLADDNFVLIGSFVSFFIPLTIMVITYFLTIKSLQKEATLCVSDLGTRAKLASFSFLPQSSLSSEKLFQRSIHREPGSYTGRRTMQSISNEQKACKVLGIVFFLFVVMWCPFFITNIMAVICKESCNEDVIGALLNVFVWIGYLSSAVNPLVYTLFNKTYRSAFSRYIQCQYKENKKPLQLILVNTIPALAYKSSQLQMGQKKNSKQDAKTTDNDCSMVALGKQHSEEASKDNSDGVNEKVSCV

For `O=S(=O)(N[C@H]1CC[C@H](CCN2CCC(c3noc4cc(F)ccc34)CC2)CC1)c1cccnc1`, the results for the Ki in assay [1] and in assay [2] were 2.48 nM and 1.95 nM, respectively.
With `COCCC(=O)N[C@H]1CC[C@H](CCN2CCC(c3noc4ccc(F)cc34)CC2)CC1`, the Ki turned out to be 37 nM in assay [1] and 3.1 nM in assay [2].
Take `O=C(N[C@H]1CC[C@H](CCN2CCC(c3noc4cc(F)ccc34)CC2)CC1)c1ccc2c(c1)OCO2`: the Ki in assay [1] turned out to be 1.71 nM; in assay [2] it was 2.75 nM.
